Experimental data published in patent publication US7880007B2, “Bicyclic substituted phenyl piperidine modulators of muscarinic receptors” (Vertex Pharmaceuticals Incorporated, priority 2004, dated 2011).

Assays:
Type in all cases: cell-based
M1 muscarinic receptor = target: T1, M1 muscarinic receptor (Homo sapiens, UniProt P11229); assay: Functional mobilization of intracellular calcium (FLIPR), M1-CHO cells; conditions: for M1 Activity: M1-CHO cells, calcium mobilization (FLIPR)
T1 construct: expressed in transfected cells; host or cells: CHO (M1-CHO)
T1 sequence (P11229 1-460): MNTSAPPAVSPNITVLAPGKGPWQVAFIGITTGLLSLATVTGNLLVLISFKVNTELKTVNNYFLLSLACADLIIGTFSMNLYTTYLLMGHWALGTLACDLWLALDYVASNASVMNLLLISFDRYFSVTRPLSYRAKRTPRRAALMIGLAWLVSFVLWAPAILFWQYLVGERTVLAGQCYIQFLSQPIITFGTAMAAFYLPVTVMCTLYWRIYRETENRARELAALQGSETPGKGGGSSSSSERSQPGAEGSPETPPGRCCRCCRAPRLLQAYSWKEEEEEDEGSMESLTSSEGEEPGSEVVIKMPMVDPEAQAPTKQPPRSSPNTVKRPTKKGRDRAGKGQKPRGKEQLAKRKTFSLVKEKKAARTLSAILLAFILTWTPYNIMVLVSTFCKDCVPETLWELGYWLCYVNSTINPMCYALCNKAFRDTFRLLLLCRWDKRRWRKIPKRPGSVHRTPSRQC
Summary of the method: (§1)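 CHO cells expressing human M1–M4 receptors loaded with Fluo-3 AM or Calcium 3 dye (1 mM probenecid, pH 7.4); 0.5% DMSO final. Agonist mode: compound added directly; antagonist mode: 15 min pre-incubation or co-application, then carbachol at EC80. Fluorescence read 60 s on FLIPR; efficacy relative to carbachol maximum.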

M2 muscarinic receptor = target: T2, M2 muscarinic receptor (Homo sapiens, UniProt P08172); assay: Functional mobilization of intracellular calcium (FLIPR), M2-CHO cells; conditions: for M2 Activity: M2-CHO cells, calcium mobilization (FLIPR)
T2 construct: expressed in transfected cells; host or cells: CHO (M2-CHO)
T2 sequence (P08172 1-466): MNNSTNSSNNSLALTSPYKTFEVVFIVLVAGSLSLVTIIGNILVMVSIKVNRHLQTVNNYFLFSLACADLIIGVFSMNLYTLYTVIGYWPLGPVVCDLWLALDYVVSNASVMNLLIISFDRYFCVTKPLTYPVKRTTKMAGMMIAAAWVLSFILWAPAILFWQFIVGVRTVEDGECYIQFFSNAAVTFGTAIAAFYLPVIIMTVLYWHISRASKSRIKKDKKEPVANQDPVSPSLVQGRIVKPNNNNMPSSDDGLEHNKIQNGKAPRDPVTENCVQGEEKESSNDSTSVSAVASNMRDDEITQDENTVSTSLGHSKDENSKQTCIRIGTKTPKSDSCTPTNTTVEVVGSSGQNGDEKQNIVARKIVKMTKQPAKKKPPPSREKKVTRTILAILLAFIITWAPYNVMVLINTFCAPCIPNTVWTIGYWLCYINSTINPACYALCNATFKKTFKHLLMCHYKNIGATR
Summary of the method: as §1

M3 muscarinic receptor = target: T3, M3 muscarinic receptor (Homo sapiens, UniProt P20309); assay: Functional mobilization of intracellular calcium (FLIPR), M3-CHO cells; conditions: for M3 Activity: M3-CHO cells, calcium mobilization (FLIPR)
T3 construct: expressed in transfected cells; host or cells: CHO (M3-CHO)
T3 sequence (P20309 whole entry): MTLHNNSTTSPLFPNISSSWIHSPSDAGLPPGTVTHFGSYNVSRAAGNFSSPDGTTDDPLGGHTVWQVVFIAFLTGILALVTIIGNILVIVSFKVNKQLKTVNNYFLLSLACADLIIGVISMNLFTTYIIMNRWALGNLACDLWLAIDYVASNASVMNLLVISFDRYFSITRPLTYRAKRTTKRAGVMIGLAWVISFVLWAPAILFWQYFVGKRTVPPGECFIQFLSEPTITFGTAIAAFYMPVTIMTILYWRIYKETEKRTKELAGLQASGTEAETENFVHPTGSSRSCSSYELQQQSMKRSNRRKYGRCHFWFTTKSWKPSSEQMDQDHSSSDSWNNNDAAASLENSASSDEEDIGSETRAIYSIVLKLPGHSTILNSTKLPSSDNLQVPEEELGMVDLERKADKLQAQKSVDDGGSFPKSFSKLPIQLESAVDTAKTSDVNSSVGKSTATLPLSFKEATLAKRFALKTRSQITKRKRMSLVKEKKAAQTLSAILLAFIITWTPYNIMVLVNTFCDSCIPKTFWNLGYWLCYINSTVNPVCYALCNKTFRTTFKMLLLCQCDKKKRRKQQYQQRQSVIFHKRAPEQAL
Summary of the method: as §1

M4 muscarinic receptor = target: T4, M4 muscarinic receptor (Homo sapiens, UniProt P08173); assay: Functional mobilization of intracellular calcium (FLIPR), M4-CHO cells; conditions: for M4 Activity: M4-CHO cells, calcium mobilization (FLIPR)
T4 construct: expressed in transfected cells; host or cells: CHO (M4-CHO)
T4 sequence (P08173 1-479): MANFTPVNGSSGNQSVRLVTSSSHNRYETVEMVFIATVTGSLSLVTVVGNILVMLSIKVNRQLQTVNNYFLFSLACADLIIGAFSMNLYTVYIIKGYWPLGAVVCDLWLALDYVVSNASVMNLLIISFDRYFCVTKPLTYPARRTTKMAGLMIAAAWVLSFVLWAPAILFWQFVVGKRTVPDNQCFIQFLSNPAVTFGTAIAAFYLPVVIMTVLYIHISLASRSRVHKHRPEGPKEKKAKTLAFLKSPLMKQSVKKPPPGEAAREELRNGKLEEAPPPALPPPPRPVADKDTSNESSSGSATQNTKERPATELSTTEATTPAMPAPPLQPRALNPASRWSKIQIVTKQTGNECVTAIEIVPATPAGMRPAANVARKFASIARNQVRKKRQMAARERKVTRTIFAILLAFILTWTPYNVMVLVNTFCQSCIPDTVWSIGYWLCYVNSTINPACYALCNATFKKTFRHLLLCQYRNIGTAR
Summary of the method: as §1

[1] = 100% efficacy is the maximum response obtained with the Carbachol control
[2] = 100% efficacy = maximum response obtained with the Carbachol control

Row | Structure (SMILES) | Emax (M1 muscarinic receptor; [1]) [%] | Emax (M2 muscarinic receptor; [1]) [%] | Emax (M3 muscarinic receptor; [1]) [%] | Emax (M4 muscarinic receptor; [1]) [%] | Emax (M1 muscarinic receptor; [2]) [%] | Emax (M2 muscarinic receptor; [2]) [%] | Emax (M3 muscarinic receptor; [2]) [%] | Emax (M4 muscarinic receptor; [2]) [%] | M1 Activity (M1 muscarinic receptor) | M2 Activity (M2 muscarinic receptor) | M3 Activity (M3 muscarinic receptor) | M4 Activity (M4 muscarinic receptor)
1 | COc1cccc(-c2ccccc2C2CCN([C@H]3C[C@H]4CC[C@H]3C4)CC2)c1OC [Compound 402] | < 25 | < 25 | < 25 | 25 to 100 | – | – | – | – | + (activity was measured to be greater than 5.0 μM) | + (activity was measured to be greater than 5.0 μM) | + (activity was measured to be greater than 5.0 μM) | ++ (activity was measured to be from 1.0 μM to 5.0 μM)
2 | COc1ccc(F)cc1C1CCN(CC2CCOCC2)CC1 [Compound 163] | – | – | – | – | 25 to 100 | < 25 | < 25 | 25 to 100 | + (activity was measured to be greater than 5.0 μM) | + (activity was measured to be greater than 5.0 μM) | + (activity was measured to be greater than 5.0 μM) | +++ (activity was measured to be less than 1.0 μM)
3 | COc1ccc(-c2cccc(F)c2)cc1C1CCN([C@H]2C[C@H]3CC[C@H]2C3)CC1 [Compound 366] | – | – | – | – | < 25 | < 25 | < 25 | 25 to 100 | + (activity was measured to be greater than 5.0 μM) | + (activity was measured to be greater than 5.0 μM) | + (activity was measured to be greater than 5.0 μM) | + (activity was measured to be greater than 5.0 μM)
4 | COc1c(F)cc(F)cc1C1CCN(C2CCOCC2)CC1 [Compound 305] | – | – | – | – | < 25 | < 25 | < 25 | 25 to 100 | + (activity was measured to be greater than 5.0 μM) | + (activity was measured to be greater than 5.0 μM) | + (activity was measured to be greater than 5.0 μM) | ++ (activity was measured to be from 1.0 μM to 5.0 μM)
5 | COc1ccc(-c2cccc(C)c2)cc1C1CCN([C@H]2C[C@H]3CC[C@H]2C3)CC1 [Compound 277] | – | – | – | – | < 25 | < 25 | < 25 | < 25 | + (activity was measured to be greater than 5.0 μM) | + (activity was measured to be greater than 5.0 μM) | + (activity was measured to be greater than 5.0 μM) | + (activity was measured to be greater than 5.0 μM)
6 | CCOC(=O)N1C2CCC1CC(N1CCC(c3cc(OC)cc(F)c3F)CC1)C2 (centres unmarked) [Compound 322] | – | – | – | – | 25 to 100 | < 25 | < 25 | 25 to 100 | +++ (activity was measured to be less than 1.0 μM) | ++ (activity was measured to be from 1.0 μM to 5.0 μM) | + (activity was measured to be greater than 5.0 μM) | +++ (activity was measured to be less than 1.0 μM)

Continued, in another order:

Row | Emax (M1 muscarinic receptor; [1]) [%] | Emax (M2 muscarinic receptor; [1]) [%] | Emax (M3 muscarinic receptor; [1]) [%] | Emax (M4 muscarinic receptor; [1]) [%] | Emax (M1 muscarinic receptor; [2]) [%] | Emax (M2 muscarinic receptor; [2]) [%] | Emax (M3 muscarinic receptor; [2]) [%] | Emax (M4 muscarinic receptor; [2]) [%] | Structure (SMILES) | M1 Activity (M1 muscarinic receptor) | M2 Activity (M2 muscarinic receptor) | M3 Activity (M3 muscarinic receptor) | M4 Activity (M4 muscarinic receptor)
7 | < 25 | < 25 | < 25 | 25 to 100 | – | – | – | – | COc1ccccc1C1CCN(C2CCCC(O)CCC2)CC1 (centres unmarked) [Compound 374] | + (activity was measured to be greater than 5.0 μM) | + (activity was measured to be greater than 5.0 μM) | + (activity was measured to be greater than 5.0 μM) | ++ (activity was measured to be from 1.0 μM to 5.0 μM)
8 | – | – | – | – | 25 to 100 | < 25 | < 25 | 25 to 100 | Oc1ccccc1C1CCN(C2CC3CC[C@H]2C3)CC1 (stereo in doubt) [Compound 229, 2-(1-((1S,2R,4R)-bicyclo[2.2.1]heptan-2-yl)piperidin-4-yl)phenol] | ++ (activity was measured to be from 1.0 μM to 5.0 μM) | + (activity was measured to be greater than 5.0 μM) | + (activity was measured to be greater than 5.0 μM) | ++ (activity was measured to be from 1.0 μM to 5.0 μM)
9 | – | – | – | – | 25 to 100 | 25 to 100 | < 25 | 25 to 100 | COc1ccc(Cl)cc1C1CCN(C2CCCCCC2)CC1 [Compound 181] | ++ (activity was measured to be from 1.0 μM to 5.0 μM) | ++ (activity was measured to be from 1.0 μM to 5.0 μM) | + (activity was measured to be greater than 5.0 μM) | +++ (activity was measured to be less than 1.0 μM)
10 | – | – | – | – | 25 to 100 | < 25 | < 25 | 25 to 100 | COc1ccccc1C1CCN(C2CCCCC2)CC1 [Compound 113] | ++ (activity was measured to be from 1.0 μM to 5.0 μM) | + (activity was measured to be greater than 5.0 μM) | + (activity was measured to be greater than 5.0 μM) | +++ (activity was measured to be less than 1.0 μM)
11 | – | – | – | – | < 25 | < 25 | < 25 | < 25 | COc1ccccc1C1CCN(CC2CC2)CC1 [Compound 346] | + (activity was measured to be greater than 5.0 μM) | + (activity was measured to be greater than 5.0 μM) | + (activity was measured to be greater than 5.0 μM) | + (activity was measured to be greater than 5.0 μM)
12 | – | – | – | – | 25 to 100 | 25 to 100 | – | 25 to 100 | COc1ccccc1C1CCN(CC2CC3C=CC2C3)CC1 (centres unmarked) [Compound 307] | ++ (activity was measured to be from 1.0 μM to 5.0 μM) | + (activity was measured to be greater than 5.0 μM) | + (activity was measured to be greater than 5.0 μM) | +++ (activity was measured to be less than 1.0 μM)
